Data on 25 molecules can be found in US8476434B2, “Protein kinase modulators and method of use” (Amgen Inc., priority 2004, dated 2013).

Where only a bound is given, the exact number is not on record here.

For the experiment, the target named is T1, LCK KD GST (225-509) (Homo sapiens, UniProt P06239).
T1 construct: LCK KD GST (225-509); GST
T1 sequence (P06239 225-509): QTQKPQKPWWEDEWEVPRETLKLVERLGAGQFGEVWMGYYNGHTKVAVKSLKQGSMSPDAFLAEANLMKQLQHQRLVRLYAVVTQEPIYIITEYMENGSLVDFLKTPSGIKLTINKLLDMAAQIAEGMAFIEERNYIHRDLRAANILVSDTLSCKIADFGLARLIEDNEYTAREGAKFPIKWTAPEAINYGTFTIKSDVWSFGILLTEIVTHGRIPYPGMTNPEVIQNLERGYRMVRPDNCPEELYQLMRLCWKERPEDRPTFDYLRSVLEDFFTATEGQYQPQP
The experiment can be described thus: LCK Homogenous Time Resolved Fluorescent (HTRF) kinase assay. It is filed as biochemical. The protocol:
The LCK HTRF assay begins with LCK in the presence of ATP phosphorylating the biotinylated peptide Gastrin. The reaction incubates for 90 min. To quench the assay detection reagents are added which both stop the reaction by diluting out the enzyme and chelating the metals due to the presence of EDTA. Once the detection reagents are added the assay incubates for 30 min to allow for equilibration of the detection reagents.
Buffer conditions are as follows: 50 mM HEPES pH 7.5, 50 mM NaCl, 20 mM MgCl, 5 mM MnCl, 2 mM DTT, 0.05% BSA.
The assay is quenched and stopped with 160 μL of detection reagent. Detection reagents are as follows: Buffer made of 50 mM Tris, pH 7.5, 100 mM NaCl, 3 mM EDTA, 0.05% BSA, 0.1% Tween20.
The assay plate is read in either a Discovery or a RubyStar.
With `CNc1nccc(-c2cccnc2Oc2cc(C(=O)Nc3cc(C(F)(F)F)ccc3N3CCCCC3)ccc2C)n1`, the IC50 was less than 1 µM.
Molecule `CNc1nccc(-c2cccnc2Oc2cc(C(=O)Nc3cc(C(F)(F)F)ccc3N(C)C3CCN(C)CC3)c(F)cc2C)n1` [2-fluoro-4-methyl-5-((3-(2-(methylamino)-4-pyrimidinyl)-2-pyridinyl)oxy)-N-(2-(methyl(1-methyl-4-piperidinyl)amino)-5-(trifluoromethyl)phenyl)benzamide] came in with an IC50 of less than 1 µM.
Molecule `CNc1nccc(-c2cccnc2Oc2ccc(F)c(C(=O)Nc3cc(C(F)(F)F)ccc3N(C)C3CCN(C)C3)c2)n1` (stereo not shown) [2-fluoro-5-((3-(2-(methylamino)-4-pyrimidinyl)-2-pyridinyl)oxy)-N-(2-(methyl(1-methyl-3-pyrrolidinyl)amino)-5-(trifluoromethyl)phenyl)benzamide] yielded an IC50 of less than 1 µM.
With `CNc1nccc(-c2cccnc2Oc2ccc(F)c(C(=O)Nc3cccc(C(C)C)c3)c2)n1` [2-fluoro-5-((3-(2-(methylamino)-4-pyrimidinyl)-2-pyridinyl)oxy)-N-(3-(1-methylethyl)phenyl)benzamide], the IC50 was less than 1 µM.
On to `CNc1nccc(-c2cccnc2Oc2cccc(NC(=O)c3cc(Cl)cc(Cl)c3)c2)n1` [3,5-dichloro-N-(3-((3-(2-(methylamino)-4-pyrimidinyl)-2-pyridinyl)oxy)phenyl)benzamide], for which the IC50 is less than 1 µM.
Consider `CNc1cc(-c2cccnc2Oc2cc(NC(=O)c3cccc(C(C)C)c3)ccc2C)ccn1` [3-(1-methylethyl)-N-(4-methyl-3-((2′-(methylamino)-3,4′-bipyridin-2-yl)oxy)phenyl)benzamide], for which the IC50 was less than 1 µM.
Regarding `CCN(CC)CCNc1nccc(-c2cccnc2Oc2cc(C(=O)Nc3cc(C(F)(F)F)ccc3N3CCOCC3)ccc2C)n1` [3-((3-(2-((2-(diethylamino)ethyl)amino)-4-pyrimidinyl)-2-pyridinyl)oxy)-4-methyl-N-(2-(4-morpholinyl)-5-(trifluoromethyl)phenyl)benzamide], the IC50 was less than 1 µM.
For the molecule `CNc1nccc(-c2cccnc2Oc2cccc(C(=O)Nc3cccc(C(C)C)c3)c2)n1` [3-((3-(2-(methylamino)-4-pyrimidinyl)-2-pyridinyl)oxy)-N-(3-(1-methylethyl)phenyl)benzamide], the IC50 was less than 1 µM.
As for `CCNc1ncnc(-c2cccnc2Oc2cc(C(=O)Nc3cccc(C(C)C)c3)ccc2C)n1` [3-((3-(4-(ethylamino)-1,3,5-triazin-2-yl)-2-pyridinyl)oxy)-4-methyl-N-(3-(1-methylethyl)phenyl)benzamide], the IC50 was less than 1 µM.
`CC(C)c1cccc(NC(=O)c2cccc(Nc3ncccc3-c3ncnc(N)n3)c2)c1` [3-((3-(4-amino-1,3,5-triazin-2-yl)-2-pyridinyl)amino)-N-(3-(1-methylethyl)phenyl)benzamide] displayed a 50% inhibitory concentration (IC50) of less than 1 µM.
In turn, `CNc1nccc(-c2cc(N(C)CCCN(C)C)cnc2Oc2cc(C(=O)Nc3cccc(C(C)C)c3)ccc2C)n1` [3-((5-((3-(dimethylamino)propyl)(methyl)amino)-3-(2-(methylamino)-4-pyrimidinyl)-2-pyridinyl)oxy)-4-methyl-N-(3-(1-methylethyl)phenyl)benzamide] had a half-maximal inhibitory concentration (IC50) of less than 1 µM.
`CNc1nccc(-c2cccnc2Oc2cc(NC(=O)c3cccc(N(C)C)c3)cc(C(F)(F)F)c2)n1` [3-(dimethylamino)-N-(3-((3-(2-(methylamino)-4-pyrimidinyl)-2-pyridinyl)oxy)-5-(trifluoromethyl)phenyl)benzamide] registered an IC50 of less than 1 µM.
In turn, `CNc1nccc(-c2cccnc2Oc2cc(Br)cc(C(=O)Nc3cc(C(F)(F)F)ccc3N(C)[C@H]3CCN(C)C3)c2)n1` [3-bromo-5-((3-(2-(methylamino)-4-pyrimidinyl)-2-pyridinyl)oxy)-N-(2-(methyl((3S)-1-methyl-3-pyrrolidinyl)amino)-5-(trifluoromethyl)phenyl)benzamide] came in with an IC50 of less than 1 µM.
In turn, `CNc1nccc(-c2cccnc2Oc2cc(Br)cc(C(=O)Nc3cccc(C(C)C)c3)c2)n1` [3-bromo-5-((3-(2-(methylamino)-4-pyrimidinyl)-2-pyridinyl)oxy)-N-(3-(1-methylethyl)phenyl)benzamide] displayed an IC50 of less than 1 µM.
As to `C#Cc1cc(Oc2ncccc2-c2ccnc(NC)n2)cc(C(=O)Nc2cccc(C(F)(F)F)c2)c1` [3-ethynyl-5-((3-(2-(methylamino)-4-pyrimidinyl)-2-pyridinyl)oxy)-N-(3-(trifluoromethyl)phenyl)benzamide], the IC50 is less than 1 µM.
For the molecule `CNc1ncnc(-c2cccnc2Oc2cc(F)cc(C(=O)Nc3cccc(C(C)C)c3)c2)n1` [3-fluoro-5-((3-(4-(methylamino)-1,3,5-triazin-2-yl)-2-pyridinyl)oxy)-N-(3-(1-methylethyl)phenyl)benzamide], the 50% inhibitory concentration (IC50) is less than 1 µM.
In the case of `CNc1nccc(-c2cc(Cl)cnc2Oc2c(C)cccc2C)n1` [4-(5-chloro-2-((2,6-dimethylphenyl)oxy)-3-pyridinyl)-N-methyl-2-pyrimidinamine], the IC50 is less than 1 µM.
Next, `COc1ccc(C(=O)Nc2cccc(C(F)(F)F)c2)cc1Nc1ncccc1-c1ccncn1` [4-(methyloxy)-3-((3-(4-pyrimidinyl)-2-pyridinyl)amino)-N-(3-(trifluoromethyl)phenyl)benzamide]: less than 1 µM; `CNc1nccc(-c2cccnc2Oc2cc(C(=O)Nc3cc(C(F)(F)F)ccc3N3CCCCC3)ccc2Cl)n1` [4-chloro-3-((3-(2-(methylamino)-4-pyrimidinyl)-2-pyridinyl)oxy)-N-(2-(1-piperidinyl)-5-(trifluoromethyl)phenyl)benzamide]: less than 1 µM.
For the molecule `CNc1nccc(-c2cccnc2Oc2cc(C(=O)Nc3cc(C(F)(F)F)ccc3N3CCCCC3)ccc2F)n1` [4-fluoro-3-((3-(2-(methylamino)-4-pyrimidinyl)-2-pyridinyl)oxy)-N-(2-(1-piperidinyl)-5-(trifluoromethyl)phenyl)benzamide], the IC50 was less than 1 µM.
For the molecule `CC(C)c1cccc(NC(=O)c2ccc(F)c(Nc3ncccc3-c3ncnc(NCCCn4ccnc4)n3)c2)c1` [4-fluoro-3-((3-(4-((3-(1H-imidazol-1-yl)propyl)amino)-1,3,5-triazin-2-yl)-2-pyridinyl)amino)-N-(3-(1-methylethyl)phenyl)benzamide], the half-inhibitory concentration (IC50) was less than 1 µM.
For `COc1cc(-c2cccnc2Oc2cc(C(=O)Nc3cccc(C(F)(F)F)c3)ccc2C)ccn1` [4-methyl-3-((2′-(methyloxy)-3,4′-bipyridin-2-yl)oxy)-N-(3-(trifluoromethyl)phenyl)benzamide] the value was less than 1 µM; for `CNc1nccc(-c2cccnc2Oc2cc(C(=O)Nc3cc(OC[C@H]4CCCN4C)cc(C(F)(F)F)c3)ccc2C)n1` [4-methyl-3-((3-(2-(methylamino)-4-pyrimidinyl)-2-pyridinyl)oxy)-N-(3-((((2R)-1-methyl-2-pyrrolidinyl)methyl)oxy)-5-(trifluoromethyl)phenyl)benzamide], less than 1 µM; for `CNc1nccc(-c2cccnc2Oc2cc(C(=O)Nc3cccc(OCc4ccccc4)c3)ccc2C)n1` [4-methyl-3-((3-(2-(methylamino)-4-pyrimidinyl)-2-pyridinyl)oxy)-N-(3-((phenylmethyl)oxy)phenyl)benzamide], less than 1 µM.
On to `CNc1nccc(-c2cccnc2Oc2cc(C(=O)Nc3cccc(Cc4ccccc4)c3)ccc2C)n1` [4-methyl-3-((3-(2-(methylamino)-4-pyrimidinyl)-2-pyridinyl)oxy)-N-(3-(phenylmethyl)phenyl)benzamide], for which the IC50 is less than 1 µM.

One may read the IC50 as the concentration that gives 50% inhibition. Read a low IC50 as higher potency.
